Results reported in patent publication US12139488B2, “Pyrido[3,2-d]pyrimidine compounds uses thereof for treating a proliferative disease” (Universite de Montreal, priority 2021, dated 2024).
Where two headings read alike, the source gives them in different places.

Key:
Assay type in all cases: cell-based, human
[1] = tested on: pERK in SW620 cells (KRAS-G12V); test: Phospho-ERK inhibition (AlphaLISA), SW620; settings: for SW620 pERK % Ymin: SW620, value in parentheses
Experimental: (§1) All cancer cell lines (A375, A101D, A2058, RKO, HT29 SK-MEL 30, IPC298, HepG2, HCT-116, Lovo, SWV620, SW480, NCI-H358, NCI-H2122, Calu-6, NCIH2087, NCIH1755, NCIH1666 and Mewo) were obtained from ATCC and cultured in RPMI-1640 medium (Gibco) supplemented with 5% heat inactivated fetal bovine serum (FBS, Wisent) at 37° C. under 5% CO2. Cells were maintained in T175 flasks (Greiner). They were passaged by removing the culture medium, washing once in 10 mL of room temperature Phosphate Buffered Saline (PBS; Wisent) and incubating at 37° C. with 2 mL of 0.05% Trypsin (Thermo-Fisher). Trypsin was then inactivated by adding complete growth medium and the cells were then replated in a T175 culture dish at the appropriate dilution. All cell lines were routinely tested for mycoplasma contamination. Tissue type and mutational status of each cell line can be found in Table B.
(§2) AlphaLISA® SureFire® Ultra™ p-ERK 1/2 (Thr202/Tyr204) analysis was conducted on cells plated in 100 μL of complete RPMI-1640 growth medium in 96-well flat-bottomed transparent dishes (Costar) at a density indicated in Table C. Cells were maintained overnight at 37° C. under 5% CO2 before treatment with compounds' dilution series for one hour. The cell density in cells/cm^2 corresponds to cell number divided by the area of one well of a 96-well plate ([…]).
(§3) In a dilution series 100 μL/well of test substance dilution prepared in complete RPMI-1640 growth media was added to the cells. The dilution series is selected so that ten concentrations cover a range from 10 μM to 0.33 nM. If necessary the initial concentration of 10 μM is increased to 100 μM or lowered to 1 μM (as in the case of A375 and H1666 cells, which are generally more sensitive to the compounds) and further dilution is carried out accordingly. The final concentration of DMSO in the assay is set at 0.5%.
(§4) After treatment, media was removed and cells were lysed in 50 μL of 1× AlphaScreen Ultra Lysis Buffer (Perkin Elmer). The AlphaLISA® SureFire® Ultra™ p-ERK 1/2 (Thr202/Tyr2O4) (PerkinElmer) reactions were performed with 5 μL of cell lysate according to the manufacturer's specifications in 384-well proxyplates (Perkin Elmer) followed by overnight incubation of the reactions at room temperature in a humidified chamber. After completion of the reactions, the signals were recorded on an EnVision plate reader (Perkin Elmer) using built in AlphaLISA® settings.
(§5) The effect of each compound dilution on the pERK signal was expressed in % inhibition and calculated as follows. An internal 100% inhibition control ([…] trametinib, cat #HY-10999; MedChem Express; CAS #871700-17-3) was included in each plate and used as a measure of pERK background. First, the value obtained for trametinib was subtracted from each data point. The average of DMSO (vehicle) controls (set as 0% inhibition) was established and used to calculate % inhibition: % inhibition=100*(1-((pERK signalcompound)/(pERK signalDMSO)))
(§6) The ability of each compound to inhibit pERK signal was expressed as an IC50 value obtained by plotting the inhibition values for each data point of a dilution series and fitting the obtained curves using a log(agonist) versus response-variable slope (four parameters) function using GraphPadPrism (V7.0) or Dotmatics Screening Ultra platform.
(§7) When present, paradoxical pERK induction is inferred from the negative % inhibition values observed in the pERK IC50 curves of a compound.

Calu-6 cells (KRAS Q61K) = test: Proliferation inhibition (CellTiter-Glo), Calu-6; settings: Calu6, 3 days, read-out: Calu6 Prolif. EC50
Experimental: as §1
(§8) CellTiter-Glo® viability analysis was conducted on cells plated in 100 μL of complete RPMI-1640 growth medium in 96-well flat-bottomed white opaque plates (Greiner or Croning) at a density indicated in Table E (for each CCL, number of cells plated per well of a 96-well plate to perform the CellTiter-Glo® cell viability assay). The cell density in cells/cm^2 would correspond to cell number divided by the area of one well of a 96-well plate (0.32 cm^2). […]
(§9) After 3 days of incubation, the growth media were removed by aspiration and 60 μL of diluted CellTiter-Glo® reagent (10 μL CellTiter-Glo® reagent+50 μL of PBS) was added to each well. […] Luminescence signals were then acquired on a Synergy Neo2 plate reader (Biotek).
(§10) The effect of each compound dilution on the proliferation of cancer cell lines was expressed in % inhibition and calculated as follows. […]
as §6, with “proliferation” for “pERK signal”, “a EC50” for “an IC50”, “effect” for “inhibition”

[2] = tested on: HCT-116 cells (KRAS G13D); test: Proliferation inhibition (CellTiter-Glo), HCT116; settings: HCT116, 3 days, read-out: HCT116 Prolif. EC50
Experimental: as §1, §8, §9, §10
as §6, with “proliferation” for “pERK signal”, “a EC50” for “an IC50”, “effect” for “inhibition”

[3] = tested on: pERK in Calu-6 cells (KRAS Q61K); test: Phospho-ERK inhibition (AlphaLISA), Calu-6; settings: for Calu6 pERK % Ymin: Calu6, value in parentheses
Experimental: as §1, §2, §3, §4, §5, §6, §7

[4] = tested on: NCI-H358 cells (KRAS-G12C); test: Proliferation inhibition (CellTiter-Glo), NCI-H358; settings: NCI-H358, 3 days, read-out: NCI-H358 Prolif. EC50
Experimental: as §1, §8, §9, §10
as §6, with “proliferation” for “pERK signal”, “a EC50” for “an IC50”, “effect” for “inhibition”

A375 cells (BRAF V600E) = test: Proliferation inhibition (CellTiter-Glo), A375; settings: A375, 3 days, read-out: A375 Prolif. EC50
Experimental: as §1, §8, §9, §10
as §6, with “proliferation” for “pERK signal”, “a EC50” for “an IC50”, “effect” for “inhibition”

## Cc1ccc2c(Nc3cccc(Cl)c3F)nccc2c1NC(=O)c1csc2c(N)ncnc12 [Belvarafenib, reference compound]
[1]; Homo sapiens, SW-620
  IC50: 30 to 300 nM
[1]
  SW620 pERK % Ymin: −151%
Calu-6 cells (KRAS Q61K); Homo sapiens, Calu-6, 72 h
  EC50: < 30 nM
[2]; Homo sapiens, HCT-116, 72 h
  EC50: 300 to 3000 nM
[3]
  Calu6 pERK % Ymin: −39%
[3]; Homo sapiens, Calu-6, read-out: Calu6 pERK IC50
  IC50: 30 to 300 nM
[4]; Homo sapiens, 72 h
  EC50: 300 to 3000 nM
A375 cells (BRAF V600E); Homo sapiens, A-375, 72 h
  EC50: < 30 nM

## Nc1cccc2c1ncn2-c1ccc2ncnc(Nc3c(F)ccc(NS(=O)(=O)c4cccc(Cl)c4Cl)c3F)c2n1 [Example 99]
[1]; SW620
  IC50: 30 to 300 nM
[1]
  SW620 pERK % Ymin: −11%
Calu-6 cells (KRAS Q61K)
  EC50: 300 to 3000 nM
[2]
  EC50: 300 to 3000 nM
[3]; Calu6
  IC50: 30 to 300 nM
[3]
  Calu6 pERK % Ymin: −12%
[4]
  EC50: < 30 nM
A375 cells (BRAF V600E)
  EC50: < 30 nM

## CC1(O)CCN(c2cccc3c2ncn3-c2ccc3ncnc(Nc4c(F)ccc(NS(=O)(=O)c5cccc(Cl)c5Cl)c4F)c3n2)CC1 [Example 524]
[1]; SW620
  IC50: 30 to 300 nM
[1]
  SW620 pERK % Ymin: −4%
Calu-6 cells (KRAS Q61K)
  EC50: 300 to 3000 nM
[2]
  EC50: 300 to 3000 nM
[3]; Calu6
  IC50: 30 to 300 nM
[3]
  Calu6 pERK % Ymin: −13%
[4]
  EC50: < 30 nM
A375 cells (BRAF V600E)
  EC50: < 30 nM
